Assay results published in patent US12169196B2, “Human iPSC-based drug testing platform for muscular dystrophy” (The Johns Hopkins University, priority 2019, dated 2024).

What was measured:
[1] = test system: mdx^5cv mice; assay: Masson's trichrome fibrosis in diaphragm muscle; type: in vivo, mouse; details: ip, 10 mg/kg, 1344 h
Source text: (§1) All animal experiments were approved by the Institutional Animal Care and Use Committee (IACUC) of The Johns Hopkins University, School of Medicine (Baltimore, Maryland). Mdx^5cv (B6Ros.Cg-Dmdmdx-5Cv/J) were obtained from The Jackson Laboratory. Mice were maintained in a 12-h light cycle (7 am-7 pm) with ad libitum access to food and water. […] Ginsenoside Rd was suspended in saline containing 10% 1,3-propanediol as vector.
Gastrocnemius, tibialis anterior, and diaphragm muscles were embedded in OCT, frozen in isopentane, and cross-sectioned (˜2-10 μm thickness). The sections were also stained with DAPI to visualize nuclei. In mice where Evans blue dye (EBD, 10 mg/ml) was used to evaluate membrane damage, EBD was injected at 0.05 ml/10 g intraperitoneally, 24 hours before sacrificing the mice. To evaluate EBD staining, gastrocnemius muscle sections were fixed with acetone and imaged with fluorescence microscopy. The area of EBD as a percentage of total area was calculated. To evaluate the number of central nucleated fibers, sections of the tibialis anterior muscle were stained with hematoxylin and eosin. Central nucleated fiber number was counted and analyzed against total fiber number. Diaphragm sections (10 μm) were stained with Masson's trichrome to determine collagen content. The stained areas were quantified against the total area.

[2] = test system: MEF2C; assay: MEF2C protein expression by Western blot and immunocytochemistry in D2 myoblasts; type: cell-based, human
Source text: FIG. 2C: Representative image of ginsenoside Rd-treated myoblasts labeled by MyHC. FIG. 2E Cell average length dose-response curve of ginsenoside Rd (FIGS. 2E-2F) Western blot quantification of MEF2C protein level post Saponin Q. and ginsenoside Rd treatment alongside healthy hiPSC derived myoblasts control and DMSO negative controls, *P 5 0.05, n=3. FIG. 2G: Quantification of MEF2C expressing nuclei of saponin Q. and ginsenoside Rd-treated D2 myoblasts, n=3, *P 5 0.05. (Data=Mean±SEM, one-way ANOVA with Dunnett's multiple comparison test with DMSO negative control).
Whole-cell extracts were prepared by lysing cells on plate with RIPA buffer (CST) supplemented by proteinase inhibitor and phosphatase inhibitor cocktail (CST). Western blotting was performed according to the standard protocol using precast NuPAGE (4-12%) Bis-Tris gel (Invitrogen). Protein transfer was performed with the Bio-Rad turbo or wet/tank blotting system. Nitrocellulose membranes were incubated with primary antibodies overnight at 4° C. Membranes were then incubated with a secondary IRDye 800 conjugated anti-rabbit IgG, or Alexa Fluor 680 anti-mouse IgG and proteins were visualized and quantified using the LI-COR Odyssey Infrared Imaging System (LI-COR). Primary antibodies applied in this study were all purchased from Cell Signaling Technology except for the MEF2C antibody, which was from Sigma.

[3] = test system: mdx^5cv mice; assay: Quadriceps strength and susceptibility to injury; type: in vivo, mouse
Source text: as §1
In vivo muscle physiology. Quadriceps strength (maximal isometric torque) and susceptibility to injury were assessed in vivo as described (69, 70). Briefly, animals were anaesthetized with 3-5% isoflurane and placed in a supine position. The thigh was stabilized and the ankle was secured on to a lever arm. The knee was aligned with the axis of the stepper motor (model T8904, NMB Technologies, Chatsworth, CA, USA) and a torque sensor (QWFK-8M, Sensotec, Columbus, OH, USA), and the femoral nerve was stimulated via subcutaneous needle electrodes. A custom program based on commercial software (LabView version 8.5, National Instruments, Austin, TX, USA) was used to synchronize contractile activation and the onset of forced knee flexion. The position of the leg that results in optimal muscle length has been previously described and maximum isometric torque was measured in Newton-millimeters (Nmm). Injury was induced by 15 forced lengthenings (knee flexion) superimposed onto maximal quadriceps contractions through a 40-100 degree arc of motion (with full knee extension considered 0 deg) spaced 1 min apart. Loss in maximal isometric torque was measured 5 min after the last lengthening contraction. Since the knee position, lever arm, and moment arm of the muscle are unchanged between tests, maximal isometric torque reflects maximal isometric muscle force.

CC(C)=CCC[C@](C)(O[C@@H]1O[C@H](CO)[C@@H](O)[C@H](O)[C@H]1O)[C@H]1CC[C@]2(C)[C@@H]1[C@H](O)C[C@@H]1[C@@]3(C)CC[C@H](O[C@@H]4O[C@H](CO)[C@@H](O)[C@H](O)[C@H]4O[C@@H]4O[C@H](CO)[C@@H](O)[C@H](O)[C@H]4O)C(C)(C)[C@@H]3CC[C@]12C [ginsenoside Rd]
reduction of levels of fibrosis in diaphragm [1]: 29% | levels of MEF2C protein expression (Western blot) ([2]; vs DMSO): increased | MEF2C expressing cells (immunocytochemistry) ([2]; vs vector control): more MEF2C expressing cells | loss in muscle force after contraction-induced injury, quadriceps [3]: 56±4.8% | maximal isometric force generated by quadriceps muscle ([3]; compared with sham control): no significant difference
